“Also recorded” adds a separate entry of the source.
Key:
FLT3 = target: T1, FLT3 (Homo sapiens, UniProt P36888); test: Cellular Chem-CLIP/C-Chem-CLIP to study occupancy of an RTK; format: cell-based
T1 construct: endogenous in cells; host or cells: MDA-MB-231
T1 sequence (P36888 27-993): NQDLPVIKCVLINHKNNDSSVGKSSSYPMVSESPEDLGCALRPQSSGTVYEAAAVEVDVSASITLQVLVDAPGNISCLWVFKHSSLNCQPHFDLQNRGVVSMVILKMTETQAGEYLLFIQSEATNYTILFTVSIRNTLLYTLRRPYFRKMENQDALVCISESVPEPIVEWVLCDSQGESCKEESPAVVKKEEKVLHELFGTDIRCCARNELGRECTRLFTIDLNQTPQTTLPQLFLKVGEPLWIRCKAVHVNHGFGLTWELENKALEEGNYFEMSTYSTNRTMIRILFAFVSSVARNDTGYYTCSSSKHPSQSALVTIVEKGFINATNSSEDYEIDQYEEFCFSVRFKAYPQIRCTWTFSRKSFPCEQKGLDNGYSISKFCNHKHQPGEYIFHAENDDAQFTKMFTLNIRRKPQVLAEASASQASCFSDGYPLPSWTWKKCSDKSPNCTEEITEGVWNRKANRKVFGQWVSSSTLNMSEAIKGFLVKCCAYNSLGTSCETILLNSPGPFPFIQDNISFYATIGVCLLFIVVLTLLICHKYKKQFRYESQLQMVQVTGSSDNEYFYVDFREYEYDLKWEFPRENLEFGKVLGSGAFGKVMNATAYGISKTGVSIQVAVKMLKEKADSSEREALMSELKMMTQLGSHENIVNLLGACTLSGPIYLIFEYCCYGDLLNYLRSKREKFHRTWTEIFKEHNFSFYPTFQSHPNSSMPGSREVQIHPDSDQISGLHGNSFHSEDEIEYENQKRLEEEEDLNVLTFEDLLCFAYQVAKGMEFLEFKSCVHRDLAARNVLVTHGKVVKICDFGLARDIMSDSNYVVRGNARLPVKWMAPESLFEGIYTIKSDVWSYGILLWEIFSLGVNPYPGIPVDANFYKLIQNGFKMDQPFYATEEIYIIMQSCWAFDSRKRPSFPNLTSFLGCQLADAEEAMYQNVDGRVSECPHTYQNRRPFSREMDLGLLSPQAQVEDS
Method: Cellular Chem-CLIP/C-Chem-CLIP to Study Occupancy of an RTK. Compound treatment and isolation of cells was completed as described for cellular occupancy studies of pre-miR-21. Total protein was extracted and concentration determined as described in the “Western Blotting” section. Approximately 1 mg of total protein was used for following pull-down experiments, using a protocol adapted from a previously published method 8. Protein cross-linked to the probe were clicked to disulfide biotin azide as described above except the amount of each reagents was doubled (20 μL/sample). Then, to the mixture was added ice-cold, 4:1 mixture of methanol/chloroform (2.5 mL) followed by 1 mL of ice-cold 1×DPBS. The mixture was centrifuged at 5000×g for 10 min at 4° C. to fractionate a protein interphase between organic and aqueous layers. […] The washed protein mixture was centrifuged at 5000×g for 10 min at 4° C. to pellet the protein. The pellet was dissolved in H2O, and to this solution was added 20 μLL streptavidin beads for 30 min at room temperature. The solution was removed, and the beads were washed once with 0.2% SDS in 1×DPBS, twice with detergent-free 1×DPBS and twice with nanopure water. After these washing steps, protein was cleaved as described above. The supernatant was collected, and protein concentration was determined with Pierce Micro BCA Protein Assay kit. […] Sample preparation was completed as described above for cellular Chem-CLIP studies. Western blotting was performed on total protein (10 μg) before or after pull-down, indicated as “Input” or “Output”, as described in Western Blotting.

[1] = system: wild type (WT) mice (Col4a3+/+); test: Wild type mice, control for Alport studies; format: in vivo, mouse
Method: (§1) Alport Mice Studies. Alport mice (Col4a3^−/−) and wild type (WT) mice (Col4a3^+/+) were obtained from the breeding of heterozygous […]. Urine was collected 1 day before the treatment, considered as Day 1. The treatment started at Day 2, at around 4 weeks of age. Alport mice were treated with vehicle or 2 as described for NOD/SCID mice in the “In Vivo Studies to Assess Metastasis of Breast Cancer to the Lung” section. Urine was collected every other day for analysis of albumin or creatine levels. After 6 weeks of treatment, the mice were euthanized on Day 43. One kidney was frozen in −80° C. for Western blot and RT-qPCR analyses. The other kidney was fixed in formalin for paraffin-embedding sectioning and further staining.
(§2) Evaluation of Kidney Function. The concentration of urine albumin was determined by using a Mouse Albumin ELISA Kit (Bethyl Laboratories Inc, E99-134) per the manufacturer's protocol. Urine creatinine level was measured by using a Urinary Creatinine Assay Kit (Fisher Scientific, 50-673-569) per the manufacturer's protocol.
(§3) Kidney Tissue Histology. Silver staining, PAS staining, and PPARα staining were performed by Histology Core at Scripps Research Florida. The anti-PPARα (Abcam, ab215270) was used at 1:1000 dilution. FISH imaging of miR-21 and pre-miR-21 were completed as described in “Lung Tissue Histology”.

Alport mice (Col4a3−/−) = test: Alport mice studies; format: in vivo, mouse
Method: as §1, §2, §3

[2] = system: base pair mutant RNA (control RNA); test: Fluorescent binding affinity measurement, base pair mutant (control RNA); details: up to 40 μM of the mutant RNA
Method: Fluorescent Binding Affinity Measurements. Binding assays were completed as previously described^5. Briefly, the RNA of interest was folded as described in the “Solution-based Dye Displacement Assay” section, including the addition of BSA. Then, 1 was added to the RNA solution to a final concentration of 0.5 μM. The solution was serial diluted with 1× AB2 containing 0.5 μM of 1. The solutions were incubated at room temperature in the dark for 30 min. The solutions were then transferred to a black 384-well plate. Fluorescence intensity was measured using a Tecan plate reader (Gain: 100, Integration time: 40 μs) with excitation wavelength of and emission wavelength of 355 nm and 535 nm, respectively. The change in fluorescence was normalized to samples lacking RNA. Binding affinity was calculated by using Equation 2, as previously described^5. I=I0+0.5Δε{([FL]0+[RNA]0+Kd)−(([FL]0+[RNA]0+Kd)^2−4[FL]0[RNA]0)^0.5} (2) where I and I0 are the measured fluorescence intensity of compound with or without RNA, respectively, Δε is the difference between the fluorescence intensity with infinite concentration of RNA or without RNA, [FL]0 and [RNA]0 are the concentrations of small molecule and RNA, respectively, and Kd is the dissociation constant.

## C#CCCC1(CCC(=O)NCCN2CCN(c3ccc4[nH]c(-c5c(N)c6c(F)cccc6[nH]c5=O)nc4c3)CC2)N=N1 [Compound 4]
FLT3; MDA-MB-231
  enrichment of FLT3 by probe: enriched

## CCOC(=O)C1=C(Nc2ccccc2)S/C(=C\c2ccc(OCCOCCOCCOCCNC(=O)NCCN3CCN(c4ccc5[nH]c(-c6c(N)c7c(F)cccc7[nH]c6=O)nc5c4)CC3)c(O)c2)C1=O [Compound 2, Ribotac-Dovitinib]
[1]; 56 mg/kg q.o.d., 6 weeks
  body weight of WT mice: gained weight at a similar rate as vehicle-treated mice
[1]; WT mice
  PPARα expression in kidneys: no significant effect
[1]; WT mice, 56 mg/kg q.o.d.
  urine albumin normalized to urine creatinine: no effect
FLT3
  fold decrease / difference in cellular protein occupancy versus 1: 100 fold
FLT3; 0.01-10 μM pre-treatment
  competition of FLT3 enrichment by probe 4: competed off
FLT3; C-Chem-CLIP, MDA-MB-231, read-out: IC50 for inhibition of the Chem-CLIP probe binding to FLT3
  IC50: 10 µM
FLT3; probe 4 1 μM
  concentration competing off probe 4 from FLT3 to the same extent: 10 µM
Alport mice (Col4a3−/−); 56 mg/kg q.o.d.
  body weight of Alport mice: gained more weight than vehicle-treated mice
Alport mice (Col4a3−/−); 56 mg/kg, q.o.d., 42 days
  urine albumin normalized to urine creatinine: stabilized; also recorded: decreased urine albumin concentration
Alport mice (Col4a3−/−); Alport mice
  PPARα expression in kidneys: enhanced; also recorded: derepressed
Alport mice (Col4a3−/−); PAS staining
  tubule injury / tubulointerstitial pathology: significantly reduced; also recorded: prevented tubule injury
Alport mice (Col4a3−/−); both Alport and WT mice
  pre-miR-21 levels in kidneys: reduced; also recorded: decreased
Alport mice (Col4a3−/−); both WT and Alport mice, RT-qPCR
  mature miR-21 levels in kidneys: decreased miR-21 levels; also recorded: reduced
Alport mice (Col4a3−/−); silver methenamine staining
  glomerulosclerosis: prevents glomerulosclerosis and tubular atrophy; also recorded: significantly reduced

## CN1CCN(c2ccc3nc(-c4c(N)c5c(F)cccc5[nH]c4=O)[nH]c3c2)CC1 [Compound 1, Dovitinib, reference compound]
[2]
  binding to control RNA / base pair mutant: No saturable binding
